# Experimental data reported in patent publication US20120269790A1, “USE OF PLANT EXTRACTS AS PREBIOTICS, COMPOSITIONS AND FOODS CONTAINING SUCH EXTRACT” (priority 2009, published 2012).
# Columns and labels:
# [1] = molecular target: T1, alpha-amylase from pancreas of pig (Sus scrofa, UniProt P00690); assay: In vitro inhibition of pig alpha-amylase; type: biochemical; conditions: 35 micrograms/ml; 100% = activity without inhibitor
# T1 construct: alpha-amylase from pancreas of pig; purchased Sigma; host or cells: pig pancreas
# T1 sequence (P00690 16-511): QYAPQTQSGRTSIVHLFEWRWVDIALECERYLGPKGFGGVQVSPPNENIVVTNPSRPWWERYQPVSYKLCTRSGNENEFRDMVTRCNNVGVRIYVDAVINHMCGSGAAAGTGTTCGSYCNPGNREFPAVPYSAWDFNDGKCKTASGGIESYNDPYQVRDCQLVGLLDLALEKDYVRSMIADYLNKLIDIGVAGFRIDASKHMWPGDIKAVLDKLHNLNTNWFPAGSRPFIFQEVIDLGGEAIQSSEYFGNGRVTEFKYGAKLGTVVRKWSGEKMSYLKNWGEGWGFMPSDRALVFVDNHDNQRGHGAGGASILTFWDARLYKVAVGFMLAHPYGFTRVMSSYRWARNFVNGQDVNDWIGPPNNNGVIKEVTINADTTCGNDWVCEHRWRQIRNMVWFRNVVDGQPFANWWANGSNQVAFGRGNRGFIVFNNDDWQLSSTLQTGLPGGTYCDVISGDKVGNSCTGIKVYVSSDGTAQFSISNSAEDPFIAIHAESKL
# Protocol: The enzymes tested were obtained from the following sources: alpha-amylase from pancreas of pig and alpha-glucosidase from Saccharomyces cerevisiae (both purchased from Sigma) and alpha-glucosidase from pig (isolated from pig intestine according to Menakshy et al. 2008).
# Measures alpha-amylase activity and alpha-glucosidase were carried out according to procedures supplied by Sigma acquired with enzymes. Briefly, the alpha-glucosidase activity was determined spectrophotometrically at 400 nm, with p-Nitrophenyl α-D-Glucoside (PNP) as substrate and alpha-amylase activity was determined spectrophotometrically at 540 nm, with soluble potato starch as substrate. As a positive control measurements were performed with acarbose as inhibitor.
# For measures with pig alpha-amylase the positive control measures were with acarbose at 35 micrograms/ml, while the concentration of pomegranate extract tested was 250 micrograms/ml.
# [2] = molecular target: T2, 3-hydroxy-3-methylglutaryl-CoA reductase (HMGR) (Homo sapiens, UniProt P04035); assay: In vitro HMGR activity (Sigma kit); type: biochemical; conditions: 500 nanomolar; 100% = activity without inhibitor
# T2 construct: purchased Sigma
# T2 sequence (P04035 426-888 limits assumed): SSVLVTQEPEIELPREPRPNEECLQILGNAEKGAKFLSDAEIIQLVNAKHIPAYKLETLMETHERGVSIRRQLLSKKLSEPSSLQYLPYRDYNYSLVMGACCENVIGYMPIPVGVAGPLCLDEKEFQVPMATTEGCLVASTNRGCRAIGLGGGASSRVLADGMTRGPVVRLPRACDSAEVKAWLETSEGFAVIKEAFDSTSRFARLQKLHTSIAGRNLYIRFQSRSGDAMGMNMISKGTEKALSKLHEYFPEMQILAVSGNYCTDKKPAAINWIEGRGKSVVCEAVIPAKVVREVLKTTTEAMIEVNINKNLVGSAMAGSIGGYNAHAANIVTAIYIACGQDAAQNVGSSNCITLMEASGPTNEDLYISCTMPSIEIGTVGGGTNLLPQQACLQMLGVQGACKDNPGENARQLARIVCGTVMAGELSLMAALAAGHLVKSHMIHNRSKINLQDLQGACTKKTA
# Protocol: Measurements were performed in triplicate. In the case of HMGR concentration measurements used for positive control with pravastatin was 500 nanomolar, while the concentration of pomegranate extract tested was 100 micrograms/ml.
Structure (SMILES),% Pig alfa-amilase Activity [1],% HMGR activity [2]
C[C@H]1O[C@H](O[C@H]2[C@H](O)[C@@H](O)[C@@H](O[C@H]3[C@H](O)[C@@H](O)C(O)O[C@@H]3CO)O[C@@H]2CO)[C@H](O)[C@@H](O)[C@@H]1N[C@H]1C=C(CO)[C@@H](O)[C@H](O)[C@H]1O (some centres unmarked) [acarbose],41.2 ± 2.3%,–
"CC[C@H](C)C(=O)O[C@H]1C[C@H](O)C=C2C=C[C@H](C)[C@H](CC[C@@H](O)C[C@@H](O)CC(=O)O)[C@H]21 [pravastatine, pravastatin]",–,9.7 ± 3.4%
